Tests used:
[1] = molecular target: Activin receptor type-1B (Homo sapiens) (UniProt P36896); conditions: Compound concentration 1000.0 nM
[2] = molecular target: Mitogen-activated protein kinase kinase kinase 14 (Homo sapiens) (UniProt Q99558); conditions: Compound concentration 1000.0 nM
[3] = molecular target: Myosin light chain kinase, smooth muscle (Homo sapiens) (UniProt Q15746); conditions: Compound concentration 1000.0 nM
[4] = molecular target: Epithelial discoidin domain-containing receptor 1 (Homo sapiens) (UniProt Q08345); conditions: Compound concentration 1000.0 nM
[5] = molecular target: Adrenergic receptor alpha-2 (Rattus norvegicus) (UniProt P22086+P19328+P22909); assay: ALPHA2/R Eurofins-Panlabs selectivity data (BI); format: protein assay; conditions: Compound concentration 10.0 uM
[6] = molecular target: Leukocyte tyrosine kinase receptor (Homo sapiens) (UniProt P29376); conditions: Compound concentration 1000.0 nM
[7] = molecular target: Serine/threonine-protein kinase B-raf (Homo sapiens) (UniProt P15056); conditions: Compound concentration 1000.0 nM
[8] = molecular target: Ribosomal protein S6 kinase alpha-6 (Homo sapiens) (UniProt Q9UK32); conditions: Compound concentration 1000.0 nM
Sequence of Ribosomal protein S6 kinase alpha-6 (Homo sapiens) (Q9UK32 whole entry): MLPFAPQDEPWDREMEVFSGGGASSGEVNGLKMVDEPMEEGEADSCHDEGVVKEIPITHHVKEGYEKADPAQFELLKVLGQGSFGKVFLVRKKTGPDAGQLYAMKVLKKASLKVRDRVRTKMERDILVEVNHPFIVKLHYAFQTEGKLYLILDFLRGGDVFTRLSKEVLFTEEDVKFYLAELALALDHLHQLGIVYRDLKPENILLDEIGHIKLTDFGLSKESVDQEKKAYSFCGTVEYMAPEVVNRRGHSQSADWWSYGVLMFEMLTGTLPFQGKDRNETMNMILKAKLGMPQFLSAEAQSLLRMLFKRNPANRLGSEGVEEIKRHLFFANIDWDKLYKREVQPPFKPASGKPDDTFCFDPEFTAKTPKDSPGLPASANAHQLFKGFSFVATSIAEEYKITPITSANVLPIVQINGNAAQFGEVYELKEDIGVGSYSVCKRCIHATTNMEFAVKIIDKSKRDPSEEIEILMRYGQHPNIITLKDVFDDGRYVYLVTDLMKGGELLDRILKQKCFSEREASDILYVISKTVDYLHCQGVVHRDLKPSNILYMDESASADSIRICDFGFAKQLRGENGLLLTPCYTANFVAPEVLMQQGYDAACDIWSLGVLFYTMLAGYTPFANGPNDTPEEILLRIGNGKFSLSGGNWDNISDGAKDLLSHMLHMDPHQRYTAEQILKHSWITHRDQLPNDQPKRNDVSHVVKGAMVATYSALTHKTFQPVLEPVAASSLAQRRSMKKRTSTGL

[9] = molecular target: SNF-related serine/threonine-protein kinase (Homo sapiens) (UniProt Q9NRH2); conditions: Compound concentration 1000.0 nM
[10] = molecular target: cGMP-dependent protein kinase 2 (Homo sapiens) (UniProt Q13237); conditions: Compound concentration 1000.0 nM
[11] = molecular target: Interleukin-1 receptor-associated kinase 4 (Homo sapiens) (UniProt Q9NWZ3); conditions: Compound concentration 1000.0 nM
[12] = molecular target: Tyrosine-protein kinase Fes/Fps (Homo sapiens) (UniProt P07332); conditions: Compound concentration 1000.0 nM
[13] = molecular target: Glycogen synthase kinase-3 beta (Homo sapiens) (UniProt P49841); conditions: Compound concentration 1000.0 nM
Sequence of Glycogen synthase kinase-3 beta (Homo sapiens) (P49841 whole entry, looked up): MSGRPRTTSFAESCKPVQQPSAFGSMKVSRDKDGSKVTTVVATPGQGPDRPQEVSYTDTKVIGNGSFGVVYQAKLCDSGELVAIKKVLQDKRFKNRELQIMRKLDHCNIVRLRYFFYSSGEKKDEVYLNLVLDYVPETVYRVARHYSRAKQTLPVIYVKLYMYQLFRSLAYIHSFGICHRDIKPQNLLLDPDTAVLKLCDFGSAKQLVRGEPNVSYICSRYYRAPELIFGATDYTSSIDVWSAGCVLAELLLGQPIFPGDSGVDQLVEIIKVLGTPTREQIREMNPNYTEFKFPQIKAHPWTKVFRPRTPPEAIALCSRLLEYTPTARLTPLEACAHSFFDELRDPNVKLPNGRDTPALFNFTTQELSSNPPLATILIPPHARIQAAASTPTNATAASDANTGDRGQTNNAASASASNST

[14] = molecular target: Interleukin-1 receptor-associated kinase 3 (Homo sapiens) (UniProt Q9Y616); conditions: Compound concentration 1000.0 nM
[15] = test system: Phosphatidylinositol 4,5-bisphosphate 3-kinase catalytic subunit alpha isoform (Homo sapiens), P42336 [H1047L]; conditions: Compound concentration 1000.0 nM
[16] = molecular target: Delta-type opioid receptor (Homo sapiens) (UniProt P41143); conditions: Compound concentration 10.0 uM
Sequence of Delta-type opioid receptor (Homo sapiens) (P41143 whole entry): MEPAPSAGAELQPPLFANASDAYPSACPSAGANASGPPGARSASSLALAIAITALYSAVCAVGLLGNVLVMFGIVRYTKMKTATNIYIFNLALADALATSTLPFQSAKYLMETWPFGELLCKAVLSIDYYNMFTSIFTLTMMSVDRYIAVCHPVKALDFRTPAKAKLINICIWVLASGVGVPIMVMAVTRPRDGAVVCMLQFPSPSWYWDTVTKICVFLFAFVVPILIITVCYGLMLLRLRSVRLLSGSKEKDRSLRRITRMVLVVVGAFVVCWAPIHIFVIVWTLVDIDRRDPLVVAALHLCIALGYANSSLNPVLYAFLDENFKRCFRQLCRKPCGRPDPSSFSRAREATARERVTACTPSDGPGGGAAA

[17] = molecular target: Polyunsaturated fatty acid lipoxygenase ALOX15 (Oryctolagus cuniculus) (UniProt P12530); assay: 15LO Eurofins-Panlabs selectivity data (BI); conditions: Compound concentration 10.0 uM
[18] = test system: Epidermal growth factor receptor (Homo sapiens), P00533 [G719C]; conditions: Compound concentration 1000.0 nM
[19] = molecular target: Serine/threonine-protein kinase RIO3 (Homo sapiens) (UniProt O14730); conditions: Compound concentration 1000.0 nM
[20] = test system: Epidermal growth factor receptor (Homo sapiens), P00533 [L858R,T790M]; conditions: Compound concentration 1000.0 nM
[21] = molecular target: Dual specificity tyrosine-phosphorylation-regulated kinase 1B (Homo sapiens) (UniProt Q9Y463); conditions: Compound concentration 1000.0 nM
[22] = molecular target: Tyrosine-protein kinase ABL1 (Homo sapiens) (UniProt P00519); conditions: Compound concentration 1000.0 nM
[23] = molecular target: Serine/threonine-protein kinase D3 (Homo sapiens) (UniProt O94806); conditions: Compound concentration 1000.0 nM
[24] = molecular target: Phosphorylase b kinase regulatory subunit alpha, liver isoform (Homo sapiens) (UniProt P46019); conditions: Compound concentration 1000.0 nM
[25] = molecular target: Mitogen-activated protein kinase kinase kinase kinase 2 (Homo sapiens) (UniProt Q12851); conditions: Compound concentration 1000.0 nM
[26] = molecular target: Serine/threonine-protein kinase Chk2 (Homo sapiens) (UniProt O96017); conditions: Compound concentration 1000.0 nM
Sequence of Serine/threonine-protein kinase Chk2 (Homo sapiens) (O96017 whole entry): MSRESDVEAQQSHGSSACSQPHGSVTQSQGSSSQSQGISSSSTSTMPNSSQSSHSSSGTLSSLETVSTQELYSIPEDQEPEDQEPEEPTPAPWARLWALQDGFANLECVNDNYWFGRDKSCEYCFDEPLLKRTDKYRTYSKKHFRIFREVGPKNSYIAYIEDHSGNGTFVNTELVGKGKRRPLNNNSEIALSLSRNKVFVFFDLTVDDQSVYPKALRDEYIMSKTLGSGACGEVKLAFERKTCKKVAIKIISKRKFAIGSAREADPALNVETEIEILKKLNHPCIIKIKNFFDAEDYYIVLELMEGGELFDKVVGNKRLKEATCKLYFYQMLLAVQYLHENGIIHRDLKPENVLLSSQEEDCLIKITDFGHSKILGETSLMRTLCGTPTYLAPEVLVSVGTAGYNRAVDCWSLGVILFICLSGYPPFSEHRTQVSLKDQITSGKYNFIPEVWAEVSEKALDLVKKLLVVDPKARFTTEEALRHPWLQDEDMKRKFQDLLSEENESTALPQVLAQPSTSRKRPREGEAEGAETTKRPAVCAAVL

[27] = test system: Epidermal growth factor receptor (Homo sapiens), P00533 [UNDEFINED MUTATION]; conditions: Compound concentration 1000.0 nM
[28] = molecular target: Proto-oncogene tyrosine-protein kinase receptor Ret (Homo sapiens) (UniProt P07949); conditions: Compound concentration 1000.0 nM
Sequence of Proto-oncogene tyrosine-protein kinase receptor Ret (Homo sapiens) (P07949 whole entry): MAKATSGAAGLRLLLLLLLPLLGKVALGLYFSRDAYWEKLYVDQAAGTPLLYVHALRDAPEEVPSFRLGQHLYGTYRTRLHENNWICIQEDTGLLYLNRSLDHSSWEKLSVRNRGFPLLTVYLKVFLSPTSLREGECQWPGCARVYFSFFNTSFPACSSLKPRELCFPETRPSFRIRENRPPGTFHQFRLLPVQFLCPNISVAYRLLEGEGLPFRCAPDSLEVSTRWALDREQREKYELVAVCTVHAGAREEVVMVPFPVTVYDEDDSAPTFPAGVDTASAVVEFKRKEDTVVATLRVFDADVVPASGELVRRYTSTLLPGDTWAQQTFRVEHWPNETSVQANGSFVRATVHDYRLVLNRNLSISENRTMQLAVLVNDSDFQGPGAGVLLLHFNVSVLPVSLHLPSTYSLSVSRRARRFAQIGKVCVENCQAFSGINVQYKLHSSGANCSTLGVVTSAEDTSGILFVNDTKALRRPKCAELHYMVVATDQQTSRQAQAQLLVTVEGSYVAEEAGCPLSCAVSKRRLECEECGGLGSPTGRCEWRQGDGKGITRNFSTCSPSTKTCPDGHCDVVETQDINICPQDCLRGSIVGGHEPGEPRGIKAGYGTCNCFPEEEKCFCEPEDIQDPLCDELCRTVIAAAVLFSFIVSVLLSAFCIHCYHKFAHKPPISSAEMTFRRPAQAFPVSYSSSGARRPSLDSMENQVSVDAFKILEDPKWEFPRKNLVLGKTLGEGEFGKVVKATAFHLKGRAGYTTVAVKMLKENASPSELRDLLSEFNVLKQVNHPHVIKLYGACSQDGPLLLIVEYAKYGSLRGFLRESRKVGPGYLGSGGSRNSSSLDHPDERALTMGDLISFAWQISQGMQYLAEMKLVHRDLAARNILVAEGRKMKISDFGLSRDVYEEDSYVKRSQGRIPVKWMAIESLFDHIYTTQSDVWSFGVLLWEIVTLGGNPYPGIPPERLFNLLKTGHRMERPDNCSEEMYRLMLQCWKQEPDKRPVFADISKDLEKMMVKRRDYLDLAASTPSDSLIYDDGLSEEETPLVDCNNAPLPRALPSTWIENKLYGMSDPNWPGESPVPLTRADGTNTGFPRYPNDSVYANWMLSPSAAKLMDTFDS

[29] = molecular target: Phosphatidylinositol 5-phosphate 4-kinase type-2 beta (Homo sapiens) (UniProt P78356); conditions: Compound concentration 1000.0 nM
[30] = molecular target: Tyrosine-protein kinase Fer (Homo sapiens) (UniProt P16591); conditions: Compound concentration 1000.0 nM
Sequence of Tyrosine-protein kinase Fer (Homo sapiens) (P16591 whole entry, looked up): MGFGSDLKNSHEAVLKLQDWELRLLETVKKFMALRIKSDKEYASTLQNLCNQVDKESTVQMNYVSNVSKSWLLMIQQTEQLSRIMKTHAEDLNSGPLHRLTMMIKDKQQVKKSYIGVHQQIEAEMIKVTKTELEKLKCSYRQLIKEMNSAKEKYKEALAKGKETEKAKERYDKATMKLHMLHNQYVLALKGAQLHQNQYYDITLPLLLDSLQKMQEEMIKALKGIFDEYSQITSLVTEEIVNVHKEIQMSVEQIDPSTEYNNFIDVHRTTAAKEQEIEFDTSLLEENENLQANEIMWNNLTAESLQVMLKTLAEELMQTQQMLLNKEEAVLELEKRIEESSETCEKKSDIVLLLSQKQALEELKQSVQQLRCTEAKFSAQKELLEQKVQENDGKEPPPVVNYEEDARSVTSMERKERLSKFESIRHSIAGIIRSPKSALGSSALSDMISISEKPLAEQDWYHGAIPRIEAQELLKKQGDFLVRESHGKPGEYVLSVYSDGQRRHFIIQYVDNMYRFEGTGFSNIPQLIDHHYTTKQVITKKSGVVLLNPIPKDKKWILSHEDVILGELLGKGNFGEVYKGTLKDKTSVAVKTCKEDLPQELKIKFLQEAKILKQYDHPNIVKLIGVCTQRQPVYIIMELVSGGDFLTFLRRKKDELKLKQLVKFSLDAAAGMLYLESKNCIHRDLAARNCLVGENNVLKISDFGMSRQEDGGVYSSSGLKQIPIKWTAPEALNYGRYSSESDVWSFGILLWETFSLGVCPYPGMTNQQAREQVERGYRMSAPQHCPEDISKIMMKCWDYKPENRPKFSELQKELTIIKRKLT

[31] = molecular target: Ribosomal protein S6 kinase alpha-1 (Homo sapiens) (UniProt Q15418); conditions: Compound concentration 1000.0 nM
[32] = test system: Epidermal growth factor receptor (Homo sapiens), P00533 [L858R]; conditions: Compound concentration 1000.0 nM
[33] = molecular target: Opioid receptor (Rattus norvegicus) (UniProt P33533+P34975+P33535); assay: OPIAT/NS Eurofins-Panlabs selectivity data (BI); format: protein assay; conditions: Compound concentration 10.0 uM
[34] = molecular target: Cyclin-dependent kinase 2 (Homo sapiens) (UniProt P24941); conditions: Compound concentration 1000.0 nM
[35] = molecular target: Bone morphogenetic protein receptor type-2 (Homo sapiens) (UniProt Q13873); conditions: Compound concentration 1000.0 nM
Sequence of Bone morphogenetic protein receptor type-2 (Homo sapiens) (Q13873 whole entry): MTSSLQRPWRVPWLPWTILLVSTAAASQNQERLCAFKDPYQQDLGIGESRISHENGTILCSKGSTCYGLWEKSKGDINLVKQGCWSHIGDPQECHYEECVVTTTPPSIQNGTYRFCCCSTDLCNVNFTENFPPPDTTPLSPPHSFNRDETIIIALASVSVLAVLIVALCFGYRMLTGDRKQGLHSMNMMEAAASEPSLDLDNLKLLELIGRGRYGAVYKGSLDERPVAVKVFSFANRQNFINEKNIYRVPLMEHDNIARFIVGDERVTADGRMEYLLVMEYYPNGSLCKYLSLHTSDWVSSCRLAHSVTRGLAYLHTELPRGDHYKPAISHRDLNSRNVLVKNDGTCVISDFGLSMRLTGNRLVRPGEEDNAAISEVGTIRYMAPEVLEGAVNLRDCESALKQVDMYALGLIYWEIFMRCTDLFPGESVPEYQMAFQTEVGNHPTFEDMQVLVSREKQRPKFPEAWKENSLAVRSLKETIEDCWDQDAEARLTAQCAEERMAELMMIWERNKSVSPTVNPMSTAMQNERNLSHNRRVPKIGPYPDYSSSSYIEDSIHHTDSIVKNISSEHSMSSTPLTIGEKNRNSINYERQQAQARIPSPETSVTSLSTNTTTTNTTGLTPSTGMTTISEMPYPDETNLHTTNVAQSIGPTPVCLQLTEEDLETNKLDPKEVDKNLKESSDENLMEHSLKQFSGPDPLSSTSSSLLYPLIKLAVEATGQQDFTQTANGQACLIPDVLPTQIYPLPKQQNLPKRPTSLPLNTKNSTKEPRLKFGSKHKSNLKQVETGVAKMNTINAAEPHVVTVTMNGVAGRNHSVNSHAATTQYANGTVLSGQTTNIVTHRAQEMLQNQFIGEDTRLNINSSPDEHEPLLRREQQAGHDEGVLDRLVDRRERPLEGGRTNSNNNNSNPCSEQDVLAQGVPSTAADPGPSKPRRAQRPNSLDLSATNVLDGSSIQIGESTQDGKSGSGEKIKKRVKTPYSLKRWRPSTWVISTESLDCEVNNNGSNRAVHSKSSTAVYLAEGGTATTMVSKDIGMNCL

[36] = molecular target: Mitogen-activated protein kinase kinase kinase 6 (Homo sapiens) (UniProt O95382); conditions: Compound concentration 1000.0 nM
[37] = test system: Receptor-type tyrosine-protein kinase FLT3 (Homo sapiens), P36888 [R834Q]; conditions: Compound concentration 1000.0 nM
[38] = test system: Phosphatidylinositol 4,5-bisphosphate 3-kinase catalytic subunit alpha isoform (Homo sapiens), P42336 [E542K]; conditions: Compound concentration 1000.0 nM

Question: `CCOCCn1cc(C(=O)Nc2ccc(-n3nc(-c4cccnc4)cc3C(F)(F)F)cn2)ccc1=O` [BI 1935] was tested. Which residual activity [1] did it give?
Answer: Its residual activity is 79%.

Question: What about the residual activity [2] of the same compound?
Answer: The residual activity was 69%.

Question: What about the residual activity [3] of the same compound?
Answer: Its residual activity is 73%.

Question: What about the residual activity [4] of the same compound?
Answer: The residual activity was 69%.

Question: What about the residual activity [5] of the same compound?
Answer: Its residual activity is 91%.

Question: And the residual activity [6]?
Answer: The residual activity was 100%.

Question: What about the residual activity [7] of the same compound?
Answer: The residual activity was 95%.

Question: And the residual activity [8]?
Answer: The residual activity was 100%.

Question: And the residual activity [9]?
Answer: Its residual activity is 88%.

Question: And the residual activity [10]?
Answer: Its residual activity is 100%.

Question: And the residual activity [11]?
Answer: Its residual activity is 96%.

Question: What about the residual activity [12] of the same compound?
Answer: Its residual activity is 82%.

Question: And the residual activity [13]?
Answer: Its residual activity is 86%.

Question: What about the residual activity [14] of the same compound?
Answer: The residual activity was 100%.

Question: And the residual activity [15]?
Answer: Its residual activity is 93%.

Question: And the inhibition [16]?
Answer: The inhibition was -6.39%.

Question: What about the residual activity [17] of the same compound?
Answer: The residual activity was 92%.

Question: What about the residual activity [18] of the same compound?
Answer: Its residual activity is 97%.

Question: What about the residual activity [19] of the same compound?
Answer: The residual activity was 88%.

Question: And the residual activity [20]?
Answer: Its residual activity is 96%.

Question: What about the residual activity [21] of the same compound?
Answer: The residual activity was 39%.

Question: What about the residual activity [22] of the same compound?
Answer: Its residual activity is 61%.

Question: What about the residual activity [23] of the same compound?
Answer: The residual activity was 81%.

Question: What about the residual activity [24] of the same compound?
Answer: The residual activity was 100%.

Question: And the residual activity [25]?
Answer: Its residual activity is 76%.

Question: What about the residual activity [26] of the same compound?
Answer: Its residual activity is 0%.

Question: And the residual activity [27]?
Answer: The residual activity was 100%.

Question: And the residual activity [28]?
Answer: The residual activity was 83%.

Question: What about the residual activity [29] of the same compound?
Answer: The residual activity was 68%.

Question: What about the residual activity [30] of the same compound?
Answer: The residual activity was 100%.

Question: What about the residual activity [31] of the same compound?
Answer: The residual activity was 100%.

Question: What about the residual activity [32] of the same compound?
Answer: Its residual activity is 90%.

Question: And the residual activity [33]?
Answer: The residual activity was 99%.

Question: And the residual activity [34]?
Answer: The residual activity was 100%.

Question: What about the residual activity [35] of the same compound?
Answer: Its residual activity is 100%.

Question: And the residual activity [36]?
Answer: Its residual activity is 86%.

Question: What about the residual activity [37] of the same compound?
Answer: The residual activity was 100%.

Question: What about the residual activity [38] of the same compound?
Answer: Its residual activity is 100%.

Reference: ChEMBL document CHEMBL4507283, “Data for DCP probe BI-1935” (2021)
